Reference: patent US9163042B2, “Prodrugs of pyridone amides useful as modulators of sodium channels” (VERTEX PHARMACEUTICALS INCORPORATED, priority 2013, dated 2015)
Where two headings read alike, the source gives them in different places. Each block holds one compound with its values, some of them ahead of it.

Key:
human Nav1.8 = human Nav1.8 (Homo sapiens (Human), UniProt Q9Y5Y9); experiment: E-VIPR optical membrane potential assay with electrical stimulation (NaV1.8 IC50 activity); format: cell-based
Sequence of human Nav1.8 (Q9Y5Y9 whole entry): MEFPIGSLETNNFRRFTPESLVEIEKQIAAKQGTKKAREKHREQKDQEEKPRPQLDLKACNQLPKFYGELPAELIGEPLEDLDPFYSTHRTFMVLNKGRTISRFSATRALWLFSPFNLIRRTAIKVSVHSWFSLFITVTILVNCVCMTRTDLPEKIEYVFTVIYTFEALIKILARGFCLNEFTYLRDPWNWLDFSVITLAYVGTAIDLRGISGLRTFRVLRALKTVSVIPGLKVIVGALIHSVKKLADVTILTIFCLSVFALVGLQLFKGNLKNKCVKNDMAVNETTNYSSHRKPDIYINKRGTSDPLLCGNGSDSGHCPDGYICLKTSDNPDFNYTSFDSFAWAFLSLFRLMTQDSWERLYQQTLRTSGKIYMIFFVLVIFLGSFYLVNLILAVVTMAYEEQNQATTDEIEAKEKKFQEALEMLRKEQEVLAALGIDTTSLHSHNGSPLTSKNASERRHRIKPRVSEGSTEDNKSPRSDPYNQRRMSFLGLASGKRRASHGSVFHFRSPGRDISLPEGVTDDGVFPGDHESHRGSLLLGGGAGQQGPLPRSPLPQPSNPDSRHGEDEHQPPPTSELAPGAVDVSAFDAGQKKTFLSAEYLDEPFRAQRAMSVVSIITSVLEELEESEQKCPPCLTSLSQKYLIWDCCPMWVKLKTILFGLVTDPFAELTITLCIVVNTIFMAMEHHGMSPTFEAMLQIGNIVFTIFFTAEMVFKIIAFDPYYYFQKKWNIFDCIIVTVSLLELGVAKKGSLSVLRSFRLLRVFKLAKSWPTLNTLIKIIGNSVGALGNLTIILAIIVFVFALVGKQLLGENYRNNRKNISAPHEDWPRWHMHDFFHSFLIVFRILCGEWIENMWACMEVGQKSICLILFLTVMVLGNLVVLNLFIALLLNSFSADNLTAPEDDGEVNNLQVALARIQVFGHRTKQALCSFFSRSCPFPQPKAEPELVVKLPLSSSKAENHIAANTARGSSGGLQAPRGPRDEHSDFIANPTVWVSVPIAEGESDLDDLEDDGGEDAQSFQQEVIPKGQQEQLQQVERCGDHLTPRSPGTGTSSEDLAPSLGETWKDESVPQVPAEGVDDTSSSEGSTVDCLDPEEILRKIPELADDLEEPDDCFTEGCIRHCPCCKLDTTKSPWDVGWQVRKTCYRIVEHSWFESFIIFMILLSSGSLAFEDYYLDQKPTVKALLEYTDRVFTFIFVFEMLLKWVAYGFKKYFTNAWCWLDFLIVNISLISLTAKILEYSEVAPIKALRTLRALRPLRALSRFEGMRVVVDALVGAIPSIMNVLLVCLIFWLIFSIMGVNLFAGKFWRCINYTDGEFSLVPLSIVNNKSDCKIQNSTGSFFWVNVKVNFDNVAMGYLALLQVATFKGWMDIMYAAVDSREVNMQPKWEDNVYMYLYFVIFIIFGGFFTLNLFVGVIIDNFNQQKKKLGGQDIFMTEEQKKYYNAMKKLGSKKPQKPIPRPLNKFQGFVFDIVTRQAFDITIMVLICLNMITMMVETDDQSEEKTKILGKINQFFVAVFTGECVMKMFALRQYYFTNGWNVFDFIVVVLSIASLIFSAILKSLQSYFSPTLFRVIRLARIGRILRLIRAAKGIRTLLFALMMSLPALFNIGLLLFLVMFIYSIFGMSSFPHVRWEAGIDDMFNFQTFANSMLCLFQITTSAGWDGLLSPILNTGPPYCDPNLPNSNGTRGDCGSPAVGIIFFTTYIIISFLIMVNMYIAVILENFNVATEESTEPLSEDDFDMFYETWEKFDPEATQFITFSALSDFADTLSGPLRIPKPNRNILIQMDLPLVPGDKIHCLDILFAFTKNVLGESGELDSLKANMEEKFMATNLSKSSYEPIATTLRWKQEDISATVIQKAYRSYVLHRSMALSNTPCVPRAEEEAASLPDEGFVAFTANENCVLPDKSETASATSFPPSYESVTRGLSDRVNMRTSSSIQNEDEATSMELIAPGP
Source text: Sodium channels are voltage-dependent proteins that can be activated by inducing membrane voltage changes by applying electric fields. The electrical stimulation instrument and methods of use are described in Ion Channel Assay Methods PCT/US01/21652, herein incorporated by reference and are referred to as E-VIPR. The instrument comprises a microtiter plate handler, an optical system for exciting the coumarin dye while simultaneously recording the coumarin and oxonol emissions, a waveform generator, a current- or voltage-controlled amplifier, and a device for inserting electrodes in well. Under integrated computer control, this instrument passes user-programmed electrical stimulus protocols to cells within the wells of the microtiter plate.
24 hours before the assay on E-VIPR, HEK cells expressing human Nav1.8 were seeded in 384-well poly-lysine coated plates at 15,000-20,000 cells per well. […] Cells were grown in vented cap flasks, in 90% humidity and 5% CO2.
1) Pre-spotted compounds (in neat DMSO) into compound plates. […] Final compound plate volume was 80 μL (80-fold intermediate dilution from 1 μL DMSO spot; 160-fold final dilution after transfer to cell plate).
2) Prepared Hexyl Dye Solution.
3) Prepared cell plates. On the day of the assay, medium was aspirated and cells were washed three times with 100 μL of Bath1 Solution, maintaining 25 μL residual volume in each well.
4) Dispensed 25 μL per well of Hexyl Dye Solution into cell plates. Incubated for 20-35 minutes at room temp or ambient conditions.
5) Dispensed 80 μL per well of Bath1 into compound plates. Acid Yellow-17 (1 mM) was added and Potassium Chloride was altered from 4.5 to 20 mM depending on the NaV subtype and assay sensitivity.
6) Washed cell plates three times with 100 μL per well of Bath1, leaving 25 μL of residual volume. […] Incubated for 20-35 minutes at room temp/ambient condition.
7) Read Plate on E-VIPR. […] A pre-stimulus recording was performed for 0.5 seconds to obtain the un-stimulated intensities baseline. The stimulatory waveform was followed by 0.5 seconds of post-stimulation recording to examine the relaxation to the resting state.
Data was analyzed and reported as normalized ratios of emission intensities measured in the 460 nm and 580 nm channels. The response as a function of time was reported as the ratios obtained using the following formula: […]
The data was further reduced by calculating the initial (Ri) and final (Rf) ratios. These were the average ratio values during part or all of the pre-stimulation period, and during sample points during the stimulation period. The response to the stimulus R=Rf/Ri was then calculated and reported as a function of time.
Control responses were obtained by performing assays in the presence of a compound with the desired properties (positive control), such as tetracaine, and in the absence of pharmacological agents (negative control). Responses to the negative (N) and positive (P) controls were calculated as above.

[1] = Rat oral pharmacokinetic study; format: in vivo, Sprague Dawley rats; details: Sprague Dawley, mean ± SD
Method: (§1) Sample Analysis. […] Before extraction, plasma samples were diluted using blank plasma at an appropriate dilution factor, as necessary, depending on the dose level. […] After centrifugation, the supernatant extract (10 μL) was injected onto the LC/MS/MS system. The HPLC system included a Phenomenex Synergy Kinetix C8 column, 2.6 micron, 2.0 mm diameter×75 mm long eluted with a gradient mobile phase consisting of 0.1% formic acid in water or in acetonitrile.
(§2) The analytes were detected by MS/MS with Electrospray Ionization (ESI) in the mode of multiple reaction monitoring (MRM). […] The intra-day and inter-day assay accuracy was within 20% of the nominal values. The intra- and inter-day assay variability was ≦20%.
(§3) Pharmacokinetic Data Analysis.
(§4) Key pharmacokinetic parameters such as AUCall, AUCextra, Cmax, tmax, Cl, Vss and t1/2 were determined.
(§5) Statistical Data Analysis. Descriptive statistical data of pharmacokinetic parameters were calculated, including the mean, standard deviation (SD), using Watson LIMS version 7.4 SP3 or Microsoft Excel 2000.
Groups of male and female Sprague Dawley rats (n=3 per dose group) were administered single nominal oral doses of 10, 100, 400, 640, 1000 mg/kg (for males) and 30, 100, 300, 640, 1000 mg/kg (for females) of compound 9 by gavage. Compound 9 was formulated in either 30% PEG400 and 10% TPGS in water or 5% TPGS, 5% PVP-K30 in 50 mM Citrate, pH 5. Animals had free access to food and water before and after dosing. Blood samples (approximately 0.25 mL each) were collected via a carotid artery catheter prior to dosing and at 0.25, 0.5, 1, 2, 4, 8, 12, 24, 48 and 72 hours post dose. Each blood sample was collected into a tube that was kept on wet ice and contained potassium EDTA as the anticoagulant. Plasma was separated and stored at approximately −70° C. until analysis.

Aqueous solubility study = format: physicochemical; details: for solubility at 24 h: thermodynamic from solid
Method: The aqueous solubility of compound 9 and 9a were determined according to the following procedure. Solubility data was determined at ambient conditions by equilibrating the compound with water on a shaking bed for 24 hours, followed by centrifugation and separation of the saturated solutions. The pH value of each media was measured before centrifugation, and the saturated solutions were assayed by HPLC.

[2] = Rat IV pharmacokinetic study; format: in vivo, Sprague Dawley rats; details: Sprague Dawley, male rat, single IV bolus 1 mg/kg of compound 9, DMI vehicle, analyte 9a in plasma; for AUC: male, rat, plasma, iv, 1 mg/kg
Method: as §1, §2, §3, §4, §5
Male Sprague Dawley rats (n=3) were administered a single nominal IV bolus dose of 1 mg/kg of compound 9 via a jugular vein cannula. […] Animals had free access to food and water before and after dosing. Blood samples (approximately 0.25 mL each) were collected via a carotid artery catheter prior to dosing and at 5 min, 10 min, 0.25, 0.5, 1, 2, 4, 8, 12, 24 hours post dose. Each blood sample was collected into a tube that was kept on wet ice and contained potassium EDTA as the anticoagulant. Plasma was separated and stored at approximately −70° C. until analysis.
Plasma concentration vs. time data were subjected to noncompartmental pharmacokinetic (PK) analysis.

[3] = Chemical and physical stability of crystalline Form B (XRPD, HPLC impurity profile, appearance); format: physicochemical
Source text: Chemically and physically stable means no changes were observed on the X-ray powder diffraction and HPLC impurity profiles (e.g., less than 0.2% variance) and there were no observed changes in physical appearance of the samples.

[4] = female rat, single PO 30 mg/kg of compound 9, 5% TPGS/5% PVP-K30/50 mM Citrate pH 5, analyte 9a in plasma
[5] = female rat, single PO 100 mg/kg of compound 9, 5% TPGS/5% PVP-K30/50 mM Citrate pH 5, analyte 9a in plasma
[6] = female rat, single PO 300 mg/kg of compound 9, 5% TPGS/5% PVP-K30/50 mM Citrate pH 5, analyte 9a in plasma
[7] = female rat, single PO 640 mg/kg of compound 9, 5% TPGS/5% PVP-K30/50 mM Citrate pH 5, analyte 9a in plasma
[8] = female rat, single PO 1000 mg/kg of compound 9, 5% TPGS/5% PVP-K30/50 mM Citrate pH 5, analyte 9a in plasma
[9] = male rat, single PO 10 mg/kg of compound 9, 5% TPGS/5% PVP-K30/50 mM Citrate pH 5, analyte 9a in plasma
[10] = male rat, single PO 100 mg/kg of compound 9, 5% TPGS/5% PVP-K30/50 mM Citrate pH 5, analyte 9a in plasma
[11] = male rat, single PO 400 mg/kg of compound 9, 5% TPGS/5% PVP-K30/50 mM Citrate pH 5, analyte 9a in plasma
[12] = male rat, single PO 640 mg/kg of compound 9, 5% TPGS/5% PVP-K30/50 mM Citrate pH 5, analyte 9a in plasma
[13] = male rat, single PO 1000 mg/kg of compound 9, 5% TPGS/5% PVP-K30/50 mM Citrate pH 5, analyte 9a in plasma

SMILES: Cc1cc(F)ccc1Oc1cc(C(F)(F)F)ccc1C(=O)Nc1cc[nH]c(=O)c1 [Compound 9a, 2-(4-fluoro-2-methylphenoxy)-N-(2-oxo-1,2-dihydropyridin-4-yl)-4-(trifluoromethyl)benzamide]
AUC [1, 4]: 99200 ± 6880 ng·h/mL
Cmax [1, 4]: 3330 ± 430 ng/mL
Tmax [1, 4]: 6.67 ± 2.31 h
half-life [1, 4]: 10.8 ± 1.6 h
AUC [1, 5]: 187000 ± 17500 ng·h/mL
Cmax [1, 5]: 5820 ± 580 ng/mL
Tmax [1, 5]: 12 h
half-life [1, 5]: 9.15 ± 0.44 h
AUC [1, 6]: 282000 ± 74200 ng·h/mL
Cmax [1, 6]: 7900 ± 1300 ng/mL
Tmax [1, 6]: 10.7 ± 2.31 h
half-life [1, 6]: 13.1 ± 2.65 h
AUC [1, 7]: 324000 ± 32800 ng·h/mL
Cmax [1, 7]: 10000 ± 1450 ng/mL
Tmax [1, 7]: 9.33 ± 2.31 h
half-life [1, 7]: 7.51 ± 1.86 h
AUC [1, 8]: 345000 ± 69600 ng·h/mL
Cmax [1, 8]: 10600 ± 3580 ng/mL
Tmax [1, 8]: 13.3 ± 9.24 h
half-life [1, 8]: 7.9 ± 3.37 h
AUC [1, 9]: 3600 ± 240 ng·h/mL
Cmax [1, 9]: 290 ± 50 ng/mL
Tmax [1, 9]: 5.33 ± 2.31 h
half-life [1, 9]: 3.8 ± 0.73 h
AUC [1, 10]: 24800 ± 4600 ng·h/mL
Cmax [1, 10]: 1670 ± 190 ng/mL
Tmax [1, 10]: 8 h
half-life [1, 10]: 5.36 ± 2.3 h
AUC [1, 11]: 68600 ± 25700 ng·h/mL
Cmax [1, 11]: 3740 ± 1250 ng/mL
Tmax [1, 11]: 5.67 ± 4.04 h
half-life [1, 11]: 5.2 ± 1.96 h
AUC [1, 12]: 74900 ± 24100 ng·h/mL
Cmax [1, 12]: 4760 ± 980 ng/mL
Tmax [1, 12]: 6 ± 3.46 h
half-life [1, 12]: 6.91 ± 1.84 h
AUC [1, 13]: 88500 ± 41000 ng·h/mL
Cmax [1, 13]: 4540 ± 910 ng/mL
Tmax [1, 13]: 6.67 ± 2.31 h
half-life [1, 13]: 7.95 ± 2.24 h
solubility at 24 h (Aqueous solubility study; aqueous medium, simulated gastric fluid, pH 1.2, crystalline, ambient conditions, 24 hours, read-out: Solubility): < 1 µg/mL
Solubility (Aqueous solubility study; pH 6.0, crystalline, ambient conditions, 24 hours): <1 µg/mL
solubility at 24 h (Aqueous solubility study; water, pH 6.0, read-out: aqueous solubility in water): < 1 µg/mL
C0 [2]: 259 ng/mL
clearance [2]: 18.7 mL/min/kg
Vd ([2]; read-out: Vss): 3.77 L/kg
half-life ([2]; read-out: t½ (converted)): 2.43 h
AUC ([2]; read-out: AUCall): 592 ng·h/mL
AUC ([2]; read-out: AUCextra): 611 ng·h/mL

SMILES: Cc1cc(F)ccc1Oc1cc(C(F)(F)F)ccc1C(=O)Nc1ccn(COP(=O)(O)O)c(=O)c1 [crystalline Form B, (4-(2-(4-fluoro-2-methylphenoxy)-4-(trifluoromethyl)benzamido)-2-oxopyridin-1(2H)-yl)methyl dihydrogen phosphate]
chemical and physical stability ([3]; 5° C./dry, 40° C./dry, 25° C. with relative humidity of up to 60%, 40° C. with relative humidity of up to 75%): chemically and physically stable for at least one month
chemical and physical stability ([3]; open dish at 40° C., 40° C. with RH up to 75%, 25° C. with RH up to 60%, closed dish at 5° C. with a desiccator): chemically and physically stable for at least three months

SMILES: O=C(Nc1ccn(COP(=O)(O)O)c(=O)c1)c1cc(C(F)(F)F)ccc1Oc1ccc(F)cc1 [Compound 18, (4-(2-(4-fluorophenoxy)-5-(trifluoromethyl)benzamido)-2-oxopyridin-1(2H)-yl)methyl dihydrogen phosphate]
IC50 (human Nav1.8): 457 nM

The next lines start with the values.

IC50 (human Nav1.8): 4 nM
SMILES: COc1cc(F)ccc1Oc1cc(Cl)c(Cl)cc1C(=O)Nc1ccn(COP(=O)(O)O)c(=O)c1 [Compound 1, (4-(4,5-dichloro-2-(4-fluoro-2-methoxyphenoxy)benzamido)-2-oxopyridin-1(2H)-yl)methyl dihydrogen phosphate]

IC50 (human Nav1.8): 86 nM
SMILES: Cc1cc(F)ccc1Oc1ccc(C(F)(F)F)cc1C(=O)Nc1ccn(COP(=O)(O)O)c(=O)c1 [Compound 10, (4-(2-(4-fluoro-2-methylphenoxy)-5-(trifluoromethyl)benzamido)-2-oxopyridin-1(2H)-yl)methyl dihydrogen phosphate]

IC50 (human Nav1.8): 28 nM
SMILES: COc1cc(F)ccc1Oc1cc(C(F)(F)C(F)(F)F)ccc1C(=O)Nc1ccn(COP(=O)(O)O)c(=O)c1 [Compound 2, (4-(2-(4-fluoro-2-methoxyphenoxy)-4-(perfluoroethyl)benzamido)-2-oxopyridin-1(2H)-yl)methyl dihydrogen phosphate]

IC50 (human Nav1.8): 329 nM
SMILES: Cc1cc(F)ccc1Oc1cc(Cl)ccc1C(=O)Nc1ccn(COP(=O)(O)O)c(=O)c1 [Compound 13, (4-(4-chloro-2-(4-fluoro-2-methylphenoxy)benzamido)-2-oxopyridin-1(2H)-yl)methyl dihydrogen phosphate]
